Reference: patent publication US20240180845A1, “THIN-SHELL POLYMERIC NANOPARTICLES AND USES THEREOF” (Academia Sinica, priority 2016, published 2024)

What was measured:
[1] = Encapsulation efficiency and loading of cargoes in thin-shell hollow PLGA nanoparticles; type: physicochemical
[2] = set-up: species or system mice; settings: mouse, in vivo
Procedure: FIG. […], is a depiction of STING agonist-loaded nanoparticles on enhancing lymphatic cytokines while minimizing systemic cytokines. • A: Induction of TNF-α in a mouse dendritic cell line following incubation with cd-GMP nanoparticles and free cd-GMP. • B: Induction of IL-6 in the same mouse dendritic cell line. • C: Induction of IFN-β in the mouse dendritic cell line. • D: Activation of JAWSII upon incubation with equivalent doses of cd-GMP in free molecule form and in nanoparticle formulation. • E: Quantification of lymph node IFN-β 48 hours following footpad injection of free cd-GMP or nanoparticle cd-GMP. • F: Level of systemic TNF-α following footpad injection of free cd-GMP and nanoparticle cd-GMP. Immune potentiation by the cd-GMP nanoparticles was further compared to free cd-GMP in vivo in mice. 48 hours following footpad injections, the draining popliteal lymph nodes were collected for IFN-β quantification. […] In addition, the systemic level of TNF-α, an indicator of reactogenicity, was also monitored following the footpad administration of free cd-GMP and cd-GMP nanoparticles.

Compound: Nc1nc2c(ncn2[C@@H]2O[C@@H]3COP(=O)(O)O[C@H]4[C@@H](O)[C@H](n5cnc6c(=O)[nH]c(N)nc65)O[C@@H]4COP(=O)(O)O[C@H]3[C@H]2O)c(=O)[nH]1 [cyclic di-GMP]
- encapsulation efficiency ([1]; cargo in thin-shell hollow PLGA nanoparticles, listed as cd-GMP): about 40%
- STING agonist molecules per nanoparticle ([1]; hollow particles 100 to 200 nm in diameter): approximately 2,000
- serum level of TNF-α, indicator of reactogenicity [2]: elevated level
